“And” between values parts separate entries of the source, which are not always exact repeats. Identical values can stand only once.
System: MDA-MB-468 complex spheroids with HUVEC/MSC, viability
Test: Anticancer human tumor MDA-MB-468 cell line growth inhibition;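 also: spheroids exposed to agents for seven days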;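 as to viability, T/C: 100% = DMSO vehicle control viability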
Settings: for viability, T/C: stronger effect = lower value
From the text: Multicellular complex tumor spheroid response to LSD1 Inhibitor Iadademstat in combination with a variety of drugs and investigational agents in selected tumor cell lines
The current study was undertaken to assess response to LSD1 inhibitors in combination with standard-of-care drugs and investigational agents in solid tumor complex spheroid models as well as in the K-562 leukemia. Complex spheroids include a stromal component modeled by human endothelial cells (HUVEC) and fibroblasts modeled by human mesenchymal stem cells (MSCs). The concentration ranges selected for each drug and investigational agent were based upon clinically achievable concentrations if the clinical Cmax of the agent was known.
Compounds. The drugs and investigational agents used in this study are listed on Table 1. All of the agents used, including staurosporine (NSC755774) and gemcitabine (NSC613327), were obtained from the Developmental Therapeutics Program, NCI. FDA-approved anticancer drugs are available from the NCI at http://dtp.nci.nih.gov/branches/dscb/oncology_drugset_explanation.html. Drugs and investigational agents were >95% pure by proton nuclear magnetic resonance (NMR) and liquid chromatography/mass spectrometry (LC/MS). Stock solutions were prepared at 400x in DMSO, stored at -70 degrees C, and diluted in fresh medium prior to their use. The final concentration of DMSO in cell culture wells never exceeded 0.25% (v/v). The FDA-approved anticancer drug set is available from the Developmental Therapeutics Program at https://dtp.cancer.gov/organization/dscb/obtaining/available_plates.htm. All drugs and investigational agents were tested over a range starting from a high concentration at or near the clinical Cmax and decreasing in half-log increments. If the clinical Cmax for an agent had not been determined, the highest concentration tested was 10 microM.
Cell Lines. The patient-derived cancer cell (PDC) lines: 292921-168-R-J2-PDC, K24384-001-R-PDC, and 521955-158-R2-J5-PDC pancreatic carcinomas, 556581-035-R-J1 ovarian carcinoma, 324938-238-R-J1-PDC, 855422-203-R-J1-PDC and 883617-216-R-J1-PDC urothelial bladder carcinomas, 743489-274-T-PDC renal cell carcinoma, 138582-R-J1 Merkel cell tumor, K60290-347-R-J1 and K57222-313-R-J1-PDC glioblastomas, 653999-131-R-J2-PDC, LG0703-F948-PDC, and 349418-098-R-PDC non-small cell lung carcinomas, 885512-296-R-J2-PDC, 171881-019-R-J1-PDC breast carcinomas and 186277-243-T-J2-PDC and 233499-124-R-J2-PDC colon carcinomas were obtained from the NCI Patient-Derived Models Repository (PDMR, https://pdmr.cancer.gov). The established cell lines NCI/ADR-RES (RRID:CVCL_14520 and OVCAR-5 (RRID:CVCL_1628) ovarian carcinomas, 786-O (RRID:CVCL_1051) and A498 (RRID:CVCL_A498) renal cell carcinoma, NCI-H211 (ATCC, cat. CRL-5824; RRID:CVCL_1529), NCI-H196 (ATCC, cat. CRL-5823, RRID:CVCL_1509), SW 1271 (ATCC, cat. CRL-2177, RRID:CVCL_1716) and NCI-H1876 (ATCC, cat. CRL-5902, RRID:CVCL_1503) small cell lung carcinomas, MDA-MB-231 (RRID:CVCL_0062) and MDA-MB-468 (RRID:CVCL_0419)breast carcinomas (10-12). Pooled donor human umbilical vein endothelial cells (HUVEC, Lonza, cat. CC-2519) and human mesenchymal stem cells (hMSC, Lonza, cat. PT-2501) were purchased from Lonza (Walkersville, MD).
Cell Culture. All cells were maintained in an incubator at 37 degrees C and 5% CO2 with 95% humidity. The PDC lines were cultured according to standard operating procedures established by the NCI PDMR (https://pdmr.cancer.gov). Briefly all PDCs were thawed and cultured in Matrigel-coated flasks prepared with a working solution of 1X Ham's F-12 nutrient mix, without supplementation (Invitrogen, Waltham, MA, cat. 11765054), 100 U/mL penicillin-streptomycin (Invitrogen, cat. 15140122), and 2.5% Matrigel (Corning Inc., Corning, NY, cat. 354248) for the first three passages. […]

[1] = curve of first compound, second compound 0.1 µM
[2] = curve of first compound, second compound 0.316 µM
[3] = curve of first compound, second compound 1 µM
[4] = curve of first compound, second compound 3.16 µM
[5] = curve of first compound, second compound 10 µM
[6] = second compound 0.1 µM, first compound 0.0316 µM
[7] = second compound 0.1 µM, first compound 0.1 µM
[8] = second compound 0.1 µM, first compound 0.316 µM
[9] = second compound 0.1 µM, first compound 1 µM
[10] = second compound 0.316 µM, first compound 0.0316 µM
[11] = second compound 0.316 µM, first compound 0.1 µM
[12] = second compound 0.316 µM, first compound 0.316 µM
[13] = second compound 0.316 µM, first compound 1 µM
[14] = second compound 1 µM, first compound 0.0316 µM
[15] = second compound 1 µM, first compound 0.1 µM
[16] = second compound 1 µM, first compound 0.316 µM
[17] = second compound 1 µM, first compound 1 µM
[18] = second compound 3.16 µM, first compound 0.0316 µM
[19] = second compound 3.16 µM, first compound 0.1 µM
[20] = second compound 3.16 µM, first compound 0.316 µM
[21] = second compound 3.16 µM, first compound 1 µM
[22] = second compound 10 µM, first compound 0.0316 µM
[23] = second compound 10 µM, first compound 0.1 µM
[24] = second compound 10 µM, first compound 0.316 µM
[25] = second compound 10 µM, first compound 1 µM

## CCc1c2c(nc3ccc(O)cc13)-c1cc3c(c(=O)n1C2)COC(=O)[C@]3(O)CC + NC1CCC(NC2CC2c2ccccc2)CC1
[1]
  IC50: < 0.949 nM
[2]
  IC50: < 0.949 nM
[3]
  IC50: < 0.949 nM
[4]
  IC50: < 0.949 nM
[5]
  IC50: < 0.949 nM
Second compound 0.1 µM, first compound 0.000949 µM
  viability, T/C: 7.86%
Second compound 0.1 µM, first compound 0.003 µM
  viability, T/C: 7.19%
Second compound 0.1 µM, first compound 0.00949 µM
  viability, T/C: 4.23%
Second compound 0.1 µM, first compound 0.03 µM
  viability, T/C: 3.08%
Second compound 0.1 µM, first compound 0.0949 µM
  viability, T/C: 2.21%
Second compound 0.1 µM, first compound 0.3 µM
  viability, T/C: 2.02%
Second compound 0.316 µM, first compound 0.000949 µM
  viability, T/C: 6.84%
Second compound 0.316 µM, first compound 0.003 µM
  viability, T/C: 5.38%
Second compound 0.316 µM, first compound 0.00949 µM
  viability, T/C: 3.66%
Second compound 0.316 µM, first compound 0.03 µM
  viability, T/C: 3.28%
Second compound 0.316 µM, first compound 0.0949 µM
  viability, T/C: 1.33%
Second compound 0.316 µM, first compound 0.3 µM
  viability, T/C: 2.06%
Second compound 1 µM, first compound 0.000949 µM
  viability, T/C: 6.78%
Second compound 1 µM, first compound 0.003 µM
  viability, T/C: 6.71%
Second compound 1 µM, first compound 0.00949 µM
  viability, T/C: 4.78%
Second compound 1 µM, first compound 0.03 µM
  viability, T/C: 2.79%
Second compound 1 µM, first compound 0.0949 µM
  viability, T/C: 1.75%
Second compound 1 µM, first compound 0.3 µM
  viability, T/C: 2.02%
Second compound 3.16 µM, first compound 0.000949 µM
  viability, T/C: 7.33%
Second compound 3.16 µM, first compound 0.003 µM
  viability, T/C: 4.42%
Second compound 3.16 µM, first compound 0.00949 µM
  viability, T/C: 4.73%
Second compound 3.16 µM, first compound 0.03 µM
  viability, T/C: 3.2%
Second compound 3.16 µM, first compound 0.0949 µM
  viability, T/C: 2.84%
Second compound 3.16 µM, first compound 0.3 µM
  viability, T/C: 1.88%
Second compound 10 µM, first compound 0.000949 µM
  viability, T/C: 6.82%
Second compound 10 µM, first compound 0.003 µM
  viability, T/C: 5.98%
Second compound 10 µM, first compound 0.00949 µM
  viability, T/C: 4.27%
Second compound 10 µM, first compound 0.03 µM
  viability, T/C: 3.39%
Second compound 10 µM, first compound 0.0949 µM
  viability, T/C: 2.46%
Second compound 10 µM, first compound 0.3 µM
  viability, T/C: 2.29%

## COc1ccc([C@@H](O)c2cc(-c3ncnc4cc(N5CCOCC5)ccc34)c(F)cc2Cl)nn1 + NC1CC1c1ccc(-c2cccc(O)c2)cc1
[1]
  IC50: 878 nM
[2]
  IC50: 876 nM
[3]
  IC50: 720 nM
[4]
  IC50: 701 nM
[5]
  IC50: 228 nM
[6]
  viability, T/C: 113%
[7]
  viability, T/C: 103%
[8]
  viability, T/C: 69.1%
[9]
  viability, T/C: 47.4%
Second compound 0.1 µM, first compound 3.16 µM
  viability, T/C: 26.1%
Second compound 0.1 µM, first compound 10 µM
  viability, T/C: 6.17%
[10]
  viability, T/C: 107%
[11]
  viability, T/C: 82.3%
[12]
  viability, T/C: 69.8%
[13]
  viability, T/C: 52.8%
Second compound 0.316 µM, first compound 3.16 µM
  viability, T/C: 25.9%
Second compound 0.316 µM, first compound 10 µM
  viability, T/C: 5.99%
[14]
  viability, T/C: 109%
[15]
  viability, T/C: 109%
[16]
  viability, T/C: 71.9%
[17]
  viability, T/C: 39.6%
Second compound 1 µM, first compound 3.16 µM
  viability, T/C: 21%
Second compound 1 µM, first compound 10 µM
  viability, T/C: 5.38%
[18]
  viability, T/C: 102%
[19]
  viability, T/C: 87.8%
[20]
  viability, T/C: 73.4%
[21]
  viability, T/C: 37.2%
Second compound 3.16 µM, first compound 3.16 µM
  viability, T/C: 21.5%
Second compound 3.16 µM, first compound 10 µM
  viability, T/C: 4.59%
[22]
  viability, T/C: 69.2%
[23]
  viability, T/C: 59.8%
[24]
  viability, T/C: 45.1%
[25]
  viability, T/C: 33.2%
Second compound 10 µM, first compound 3.16 µM
  viability, T/C: 20.1%
Second compound 10 µM, first compound 10 µM
  viability, T/C: 2.86%

## CC1COCCN1c1cc(-c2ccnn2C)c2ccnc(-c3ccn[nH]3)c2n1 (stereo not drawn) + NC1CC1c1ccc(-c2cccc(O)c2)cc1
[1]
  IC50: < 3.16 nM
[2]
  IC50: < 3.16 nM
[3]
  IC50: < 3.16 nM
[4]
  IC50: < 3.16 nM
[5]
  IC50: < 3.16 nM
Second compound 0.1 µM, first compound 0.00316 µM
  viability, T/C: 40%
Second compound 0.1 µM, first compound 0.01 µM
  viability, T/C: 30.1%
[6]
  viability, T/C: 16.7%
[7]
  viability, T/C: 7.91%
[8]
  viability, T/C: 5.23%
[9]
  viability, T/C: 2.24%
Second compound 0.316 µM, first compound 0.00316 µM
  viability, T/C: 37.9%
Second compound 0.316 µM, first compound 0.01 µM
  viability, T/C: 27.4%
[10]
  viability, T/C: 17%
[11]
  viability, T/C: 7.28%
[12]
  viability, T/C: 4.97%
[13]
  viability, T/C: 2.27%
Second compound 1 µM, first compound 0.00316 µM
  viability, T/C: 29.2%
Second compound 1 µM, first compound 0.01 µM
  viability, T/C: 28%
[14]
  viability, T/C: 15.5%
[15]
  viability, T/C: 7.91%
[16]
  viability, T/C: 5.09%
[17]
  viability, T/C: 2.01%
Second compound 3.16 µM, first compound 0.00316 µM
  viability, T/C: 27.4%
Second compound 3.16 µM, first compound 0.01 µM
  viability, T/C: 22.4%
[18]
  viability, T/C: 12.3%
[19]
  viability, T/C: 7.5%
[20]
  viability, T/C: 5.19%
[21]
  viability, T/C: 2.2%
Second compound 10 µM, first compound 0.00316 µM
  viability, T/C: 20.3%
Second compound 10 µM, first compound 0.01 µM
  viability, T/C: 17.1%
[22]
  viability, T/C: 10.4%
[23]
  viability, T/C: 6.9%
[24]
  viability, T/C: 5.95%
[25]
  viability, T/C: 2.01%

## Nc1ccn(C2OC(CO)C(O)C2(F)F)c(=O)n1 (stereo not drawn)
Compound 0.003 µM
  viability, T/C: 6.32% and 18.5%
Compound 0.00949 µM
  viability, T/C: 5.5% and 5.58%
Compound 0.03 µM
  viability, T/C: 5.68% and 4.46%
Compound 0.0949 µM
  viability, T/C: 5.72% and 4.42%
Compound 0.3 µM
  viability, T/C: 5.93% and 4.29%
Curve of compound
  IC50: < 0.949 nM

## NC1CCC(NC2CC2c2ccccc2)CC1 (stereo not drawn)
Compound 0.316 µM
  viability, T/C: 96.4% and 88.1% and 98.6%
Compound alone, run of 01/24/2022
  IC50: > 10000 nM and 9570 nM
